Laboratory results published in patent publication US9216179B2, “Treatment of gout and hyperuricemia” (ARDEA BIOSCIENCES, INC., priority 2010, dated 2015).

Assays:
[1] = test system: patients with gout; experiment: Phase II gout dose response study, Lesinurad versus placebo (incidence of gout flares); type: in vivo, human
Method: Purpose: To compare the proportion of subjects whose serum urate (sUA) level is <6.0 mg/dL after 28 days of dosing by treatment group.
Official Title: Randomized, Double-Blind, Multicenter, Placebo-Controlled, Safety and Efficacy Study of Lesinurad Versus Placebo in the Treatment of Hyperuricemia in Patients With Gout
Experimental Dosage Form: 200 mg capsule of Lesinurad, with appropriate pharmaceutically acceptable excipients
Primary Outcome Measures: Compare the proportion of subjects whose serum urate (sUA) level is <6.0 mg/dL after 28 days of dosing by treatment group.
Secondary Outcome Measures: • Evaluate the proportion of subjects with sUA levels <6.0 mg/dL at each weekly study visit. • Evaluate absolute and percent reduction from baseline in sUA levels at each weekly study visit. • Evaluate the percent change in 24-hr urine urate level (excretion) from baseline to Day 28. • Evaluate the incidence of gout flares. • Evaluate the safety and tolerability of Lesinurad in subjects with gout.
Inclusion Criteria: • Male or post-menopausal or surgically sterile female. • Hyperuricemic (i.e., screening sUA ≧8 mg/dL). • Meets criteria for the diagnosis of gout as per the American Rheumatism Association (ARA) Criteria for the Classification of Acute Arthritis of Primary Gout (see Appendix B). • Willing and able to give informed consent and adhere to visit/protocol schedules (informed consent must be given before the first study procedure is performed).
Results: Incidence of gout flares are presented in Table 2 below indicating the majority of flares occurred in the first week when patients were receiving 200 mg QD (6/10 total flares on drug). Few additional flares occurred as dose increased, even with greater decrease in sUA. Duration of flares is shorter at higher doses, the opposite of what would be expected with greater reduction in sUA.

[2] = test system: Patients; experiment: Example 4 A: allopurinol 300 mg QD for 1 week followed by compound of Formula I, serum uric acid; type: in vivo, human
Method: A: Patients received allopurinol 300 mg QD for 1 week followed by a compound of Formula I. A compound of Formula I (200 mg) reduced serum uric acid levels 9% beyond the reduction observed for allopurinol alone. Titration up to 400 mg of a compound of Formula I provided further reduction of serum uric acid levels by 6%. The combination of a compound of Formula I (400 mg) and allopurinol provided 100% response (i.e., sUA <6 mg/dL) and an 80% sUA reduction below 5 mg/dL. These responses are illustrated in FIG. 6.

[3] = test system: gout patients with sUA greater than 8 mg/dL; experiment: Example 6: open-label clinical pharmacology study, combination with febuxostat; conditions: for increases in serum creatinine (Grade): human, in vivo
Method: Also provided herein in certain embodiments is an open-label, clinical pharmacology study including 2 cohorts of gout patients with sUA greater than 8 mg/dL on no urate-lowering therapy. In some embodiments, patients received colchicine beginning one week prior to baseline and continuing for 5 weeks for flare prophylaxis. In other embodiments, the first cohort of patients in the study consisted of gout patients with a median baseline sUA of 9.2 mg/dL who were administered 40 mg febuxostat for the first week, 40 mg febuxostat in combination with 400 mg of a compound of formula I for the second week, and then 40 mg febuxostat in combination with 600 mg of a compound of formula I for the third week. […] In some embodiments, less than 40 mg, greater than 40 mg, less than 80 mg, greater than 80 mg, or any suitable amount of febuxostat was administered.
This 21-patient, open-label, clinical pharmacology study included 2 cohorts of gout patients with sUA greater than 8 mg/dL on no urate-lowering therapy. All patients received colchicine beginning one week prior to baseline and continuing for 5 weeks for flare prophylaxis.

[4] = test system: gout patients with sUA greater than 8 mg/dL; experiment: Example 7: open-label clinical pharmacology study, combination with allopurinol; type: in vivo, human
Method: This 20-patient, open-label clinical pharmacology study included 2 cohorts of gout patients with sUA greater than 8 mg/dL on no urate-lowering therapy who began colchicine dosing one week prior to baseline and continued for 5 weeks. […] Elevations in CK and rhabdomyolysis are known side effects of colchicine.

[5] = test system: gout patients with elevated uric acid levels; conditions: for serious adverse events or deaths: Phase 2b study, 28 days
Method: In some embodiments, for patients randomized to receive 400 mg a compound of formula I and 600 mg of a compound of formula I, a daily dose of compound of formula I was escalated weekly in increments of 200 mg/day.

[6] = test system: Patients; conditions: Allopurinol Alone
Method: B: Patients received allopurinol alone for one week. For the second week, Panel 1 received a compound of Formula I (400 mg) and Panel 2 received a compound of Formula I (600 mg) in combination with allopurinol 300 mg.

[7] = test system: gout patients; conditions: controlled trials; cited from earlier work
[8] = test system: individuals treated with the drug; conditions: in vivo; cited from earlier work
[9] = test system: IL-1; experiment: IL-1 release/production after stimulation (FIG. 1, FIG. 3)
[10] = test system: monosodium urate crystal-induced inflammatory response; experiment: rat air pouch model of crystal-induced arthropathy; type: in vivo, Sprague-Dawley rats; conditions: PO 10, 30, 100 mg/kg; 150 mg MSU; FIGS. 4 and 5
Method: • 1. […] NaOH was added as required to maintain pH between 8-9. The solution was filtered and incubated at ambient with slow stirring continuously for 24 hours. • b. Crystals were washed, dried and sterilized by autoclaving. • c. Crystals were suspended in sterile saline at 0.67 mg/ml, 2.67 mg/ml and 10 mg/ml just prior to use. • 2. 110 Sprague-Dawley rats (male, 160-180 g) were obtained. Following quarantine, rats were accepted for the Study if no signs of clinical distress were noted during the 3-day quarantine period. The rats were maintained on certified laboratory diet and water ad libitum. • 3. The rats were ear-notched for individual identification. • 4. The rat weights were recorded. • 5. […] Exudates volume was measured and recorded for each animal. • a. […] Plasma extravasation was measured by optical absorbance at 620 nm for each exudate sample. • 14. […] Mean cell counts and standard deviations were determined for each group. • b. Mean optical absorbance measurements and standard deviations were determined for each group. • c. Group means and standard deviations for TNF-alpha and IL-1 were determined for each group. • d. Statistical significance of treatments on mean cell counts, mean optical absorbance measurements and mean cytokine measurements were determined by comparison of means for treatment and positive control groups with vehicle group.

[11] = test system: individuals treated with probenecid; conditions: in vivo; cited from earlier work
[12] = test system: TNF-α; experiment: TNF-α production (FIG. 2); conditions: FIG. 2, 6 hour time point
[13] = Cohort 1, allopurinol 300 mg alone
[14] = Cohort 2, allopurinol 300 mg alone
[15] = Placebo qd + allopurinol, sUA <6 mg/dL after 4 weeks
[16] = Cohort 1, febuxostat 40 mg alone
[17] = Cohort 2, febuxostat 80 mg alone

O=C(O)CSc1nnc(Br)n1-c1ccc(C2CC2)c2ccccc12 [Formula I, 2-(5-bromo-4-(4-cyclopropylnaphthalen-1-yl)-4H-1,2,4-triazol-3-ylthio)acetic acid]
% of patients with Flares by Dose at Time of Flare ([1]; 200 mg at time of flare): 6% (6/96)
Mean Duration of Flares (by Dose at Time of Flare) ([1]; 200 mg at time of flare): 4 days
% of patients with Flares by Dose at Time of Flare ([1]; 400 mg at time of flare): 2% (1/65)
Mean Duration of Flares (by Dose at Time of Flare) ([1]; 400 mg at time of flare): 2 days
% of patients with Flares by Dose at Time of Flare ([1]; 600 mg at time of flare): 9% (3/32)
Mean Duration of Flares (by Dose at Time of Flare) ([1]; 600 mg at time of flare): 1.7 days
Mean Duration of Flares ([1]; Randomized Dose Group 200 mg): 4 days
% Patients with Flares ([1]; Randomized Dose Group 200 mg qd for 28 days): 6%
Mean Duration of Flares ([1]; Randomized Dose Group 400 mg): 3.8 days
% Patients with Flares ([1]; Randomized Dose Group 400 mg (200 mg 7 days, 400 mg 21 days)): 12%
Mean Duration of Flares ([1]; Randomized Dose Group 600 mg): 1.5 days
% Patients with Flares ([1]; Randomized Dose Group 600 mg (200 mg 7 days, 400 mg 7 days, 600 mg 14 days)): 13%
reduction of serum uric acid levels beyond the reduction observed for allopurinol alone ([2]; Formula I 200 mg after allopurinol 300 mg QD for 1 week): 9%
further reduction of serum uric acid levels ([2]; titration up to 400 mg): 6%
additional sUA reduction compared to febuxostat alone ([3]; addition of 600 mg to 40 mg febuxostat): 39%
additional sUA reduction compared to febuxostat alone ([3]; addition of 600 mg to 80 mg febuxostat): 51%
increases in serum creatinine (Grade) [3]: no Grade 2 or higher increases
Percent patients <5 mg/dL ([4]; Cohort 1, 400 mg alone): 0%
Percent sUA change at trough (median, from baseline) ([4]; Cohort 1, 400 mg alone): −28%
Percent sUA change intraday (median, from baseline) ([4]; Cohort 1, 400 mg alone): −44%
Response rate (<6 mg/dL) ([4]; Cohort 1, 400 mg alone): 20%
Percent patients <5 mg/dL ([4]; Cohort 2, 600 mg alone): 33%
Percent sUA change at trough (median, from baseline) ([4]; Cohort 2, 600 mg alone): −39%
Percent sUA change intraday (median, from baseline) ([4]; Cohort 2, 600 mg alone): −54%
Response rate (<6 mg/dL) ([4]; Cohort 2, 600 mg alone, listed as 2-(5-bromo-4-(4-cyclopropylnaphthalen-1-yl)-4H-1,2,4-triazol-3-ylthio)acetate): 67%
serious adverse events or discontinuations considered possibly related ([4]; human, in vivo): no serious adverse events or discontinuations
serious adverse events or deaths [5]: no serious adverse events or deaths

Oc1ncnc2[nH]ncc12 [allopurinol]
% Patients <4 mg/dL [6]: 0%
% Patients <5 mg/dL [6]: 9%
Response: % Patients <6 mg/dL [6]: 63%
sUA Mean % Reduction [6]: 32%
patients achieving target sUA levels below 6 mg/dL ([4]; 300 mg allopurinol alone): 20%
Response rate (<6 mg/dL) ([4]; Cohort 1 (median baseline 9.8 mg/dL), allopurinol 300 mg alone): 10%
Percent patients <5 mg/dL [4, 13]: 5%
Percent sUA change at trough (median, from baseline) [4, 13]: −31%
Percent sUA change intraday (median, from baseline) [4, 13]: −38%
Response rate (<6 mg/dL) ([4]; Cohort 2 (median baseline 9.1 mg/dL), allopurinol 300 mg alone): 30%
Percent patients <5 mg/dL [4, 14]: 5%
Percent sUA change at trough (median, from baseline) [4, 14]: −27%
Percent sUA change intraday (median, from baseline) [4, 14]: −35%
serious adverse events or deaths [5]: fatal myocardial infarction
Mean Change in Serum Urate at Week 4 vs. Baseline on Allopurinol Alone ([5]; Placebo qd + allopurinol): +3%
Response Rate (ITT Analysis) [5, 15]: 25%
Response Rate (LOCF Analysis) [5, 15]: 29%
patients who discontinued treatment due to an adverse event ([5]; human, in vivo): three
gout patients responding adequately (sUA less than 6 mg/dL) [7]: 30-40%
incidence of side effects, of all individuals treated [8]: 20%

COc1cc2c(c(OC)c1OC)-c1ccc(OC)c(=O)cc1[C@@H](NC(C)=O)CC2 [colchicine]
increases in serum creatinine (Grade) [3]: one Grade 2 serum creatinine increase

O=C([O-])CSc1nnc(Br)n1-c1ccc(C2CC2)c2ccccc12.[Na+] [compound 1, 2-(5-Bromo-4-(4-cyclopropylnaphthalen-1-yl)-4H-1,2,4-triazol-3-ylthio)acetate sodium salt]
blocks IL-1 release, time after stimulation ([9]; FIG. 1): ≤ 1 h
monosodium urate crystal-induced inflammatory response [10]: blocked

Cc1nc(-c2ccc(OCC(C)C)c(C#N)c2)sc1C(=O)O [febuxostat]
Response rate (<6 mg/dL) ([3]; Cohort 1 (median baseline 9.2 mg/dL), febuxostat 40 mg alone): 67%
Response rate (<6 mg/dL) ([3]; Cohort 1 (median baseline 9.2 mg/dL), febuxostat 40 mg alone, listed as Febuxostat): 67%
Percent patients <4 mg/dL [3, 16]: 0%
Percent sUA change at trough (median, from baseline) [3, 16]: −35%
Percent sUA change intraday (median, from baseline) [3, 16]: −44%
Response rate (<6 mg/dL) ([3]; Cohort 2 (median baseline […]), febuxostat 80 mg alone): 56%
Response rate (<6 mg/dL) ([3]; Cohort 2 (median baseline […]), febuxostat 80 mg alone, listed as Febuxostat): 56%
Percent patients <4 mg/dL [3, 17]: 0%
Percent sUA change at trough (median, from baseline) [3, 17]: −47%
Percent sUA change intraday (median, from baseline) [3, 17]: −52%
patients achieving sUA levels below 4 mg/dL or below 3 mg/dL ([3]; either dose of febuxostat alone): No patient

CCCN(CCC)S(=O)(=O)c1ccc(C(=O)O)cc1 [probenecid]
individuals developing intolerance [11]: one-third
individuals failing to achieve reduction of serum uric acid levels <6 mg/dL [11]: 25-50%

rilonacept
IL-1 production ([9]; FIG. 3): does not reduce
production of TNF-α [12]: inhibits
